Molecular target: Platelet-derived growth factor receptor beta (Homo sapiens, UniProt P09619)
Experiment: PDGFRβ Kinase Assay: Biochemical PDGFRβ kinase assays were performed in 96 well microtiter plates that were coated overnight with 75 μg of poly-Glu-Tyr (4:1) in 10 mM Phosphate Buffered Saline (PBS), pH 7.4. The coated plates were washed with 2 mls per well PBS+0.05% Tween-20 (PBS-T), blocked by incubation with PBS containing 1% BSA, then washed with 2 mls per well PBS-T prior to starting the reaction. Reactions were carried out in 100 μL reaction volumes containing 36 μM ATP in kinase buffer (50 mM Hepes buffer pH 7.4, 20 mM MgCl2, 0.1 mM MnCl2 and 0.2 mM Na3VO4). Test compounds were reconstituted in 100% DMSO and added to the reaction to give a final DMSO concentration of 5%. Reactions were initiated by the addition 20 ul per well of kinase buffer containing 200-300 ng purified cytoplasmic domain PDGFR-b protein (Millipore). Following a 60 minute incubation at 30° C., the reactions were washed 2 mls per well PBS-T. 100 μl of a monoclonal anti-phosphotyrosine antibody-peroxidase conjugate diluted 1:10,000 in PBS-T was added to the wells for 30 minutes. Following a 2 mls per well wash with PBS-Tween-20, 100 μl of O-Phenylenediamine Dihydrochloride in phosphate-citrate buffer, containing urea hydrogen peroxide, was added to the wells for 7-10 minutes as a colorimetric substrate for the peroxidase. […]

Chain of Platelet-derived growth factor receptor beta (P09619 whole entry, the tested form may be a part): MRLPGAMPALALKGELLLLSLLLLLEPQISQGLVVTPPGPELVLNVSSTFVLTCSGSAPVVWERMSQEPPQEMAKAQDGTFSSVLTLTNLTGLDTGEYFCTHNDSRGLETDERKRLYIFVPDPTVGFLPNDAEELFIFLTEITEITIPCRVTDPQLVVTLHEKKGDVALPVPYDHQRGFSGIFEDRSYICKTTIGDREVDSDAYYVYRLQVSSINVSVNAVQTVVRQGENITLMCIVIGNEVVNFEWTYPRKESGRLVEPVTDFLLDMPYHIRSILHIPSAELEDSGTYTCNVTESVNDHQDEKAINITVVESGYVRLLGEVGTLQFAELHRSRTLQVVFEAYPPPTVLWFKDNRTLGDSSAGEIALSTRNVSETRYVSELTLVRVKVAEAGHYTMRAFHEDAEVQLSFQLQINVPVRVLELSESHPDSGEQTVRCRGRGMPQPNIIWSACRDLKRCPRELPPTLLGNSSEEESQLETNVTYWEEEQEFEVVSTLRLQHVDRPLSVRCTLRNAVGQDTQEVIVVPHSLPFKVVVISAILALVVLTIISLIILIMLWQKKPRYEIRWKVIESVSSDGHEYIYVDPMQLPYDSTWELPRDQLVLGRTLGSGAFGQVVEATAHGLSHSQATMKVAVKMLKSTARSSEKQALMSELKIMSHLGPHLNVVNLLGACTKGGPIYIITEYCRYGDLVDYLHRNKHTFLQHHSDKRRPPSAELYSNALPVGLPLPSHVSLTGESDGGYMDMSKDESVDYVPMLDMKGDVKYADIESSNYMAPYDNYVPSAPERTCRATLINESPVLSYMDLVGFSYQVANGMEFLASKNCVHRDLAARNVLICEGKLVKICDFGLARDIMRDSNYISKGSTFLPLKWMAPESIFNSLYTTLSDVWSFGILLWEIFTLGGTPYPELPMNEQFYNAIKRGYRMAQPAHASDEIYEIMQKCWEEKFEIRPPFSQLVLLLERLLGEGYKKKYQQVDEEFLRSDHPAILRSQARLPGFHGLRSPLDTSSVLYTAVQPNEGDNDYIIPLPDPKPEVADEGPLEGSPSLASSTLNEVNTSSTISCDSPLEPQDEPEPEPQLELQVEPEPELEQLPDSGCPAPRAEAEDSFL

IC50: 11 nM
SMILES: Cc1ccc(F)c(NC(=O)c2cccc(C#Cc3cc(C(=O)N=S4(=O)CCOCC4)cnc3N)c2)c1
